“And” between values parts separate entries of the source, which are not always exact repeats. Identical values can stand only once.

The text below walks through data of article PMC9161449, “FUT8-Directed Core Fucosylation of N-glycans Is Regulated by the Glycan Structure and Protein Environment” (ACS Catalysis, 2021).

In test [1] the target is T1, human FUT8 (Homo sapiens, UniProt Q9BYC5).
T1 construct: made in house
T1 sequence (Q9BYC5 1-575): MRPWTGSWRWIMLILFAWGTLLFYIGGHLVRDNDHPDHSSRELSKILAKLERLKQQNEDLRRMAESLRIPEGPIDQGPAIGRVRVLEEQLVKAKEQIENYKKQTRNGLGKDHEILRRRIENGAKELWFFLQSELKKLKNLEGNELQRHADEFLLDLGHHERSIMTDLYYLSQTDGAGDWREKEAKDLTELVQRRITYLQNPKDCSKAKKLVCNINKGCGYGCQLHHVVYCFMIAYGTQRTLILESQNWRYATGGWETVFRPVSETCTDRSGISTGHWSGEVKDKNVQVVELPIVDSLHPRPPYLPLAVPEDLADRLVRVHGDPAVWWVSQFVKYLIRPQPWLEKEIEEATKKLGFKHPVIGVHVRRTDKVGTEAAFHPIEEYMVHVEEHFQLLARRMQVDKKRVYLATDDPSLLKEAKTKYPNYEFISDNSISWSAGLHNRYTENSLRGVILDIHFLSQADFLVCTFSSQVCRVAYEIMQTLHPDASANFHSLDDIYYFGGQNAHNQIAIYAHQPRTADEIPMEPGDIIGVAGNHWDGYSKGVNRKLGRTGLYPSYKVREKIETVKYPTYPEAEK
Nature of the test: Isothermal titration calorimetry (ITC) of ligands binding to FUT8. On the procedure:
(§1) The human FUT8 was purified as previously described.[12]
ITC was performed to characterize the interaction of FUT8 with GDP, G0, the G0-peptide, the M3N2-peptide, M3N2, and M5N2-Asn. All experiments were carried out in an Auto-iTC200 (Microcal, GE Healthcare) at 25 °C. The concentration of FUT8 was 70 μM and the ligand concentration ranged from 400 μM to 1 mM. The experiments used 25 mM Tris (pH 7.5) and 150 mM NaCl for the characterization of the binding of FUT8 against GDP and G0. To characterize the binding of FUT8 against all N-glycans in the presence of an excess of GDP, the conditions were 25 mM Tris (pH 7.5), 150 mM NaCl, and 1 mM GDP. The experiments were performed in duplicate. Data integration, correction, and analysis were carried out in Origin 7 (Microcal). The data were fitted to a one-site equilibrium-binding model.

Test [2] deals with T1, human FUT8. Nature of the test: STD NMR of ligands with FUT8. The format is binding. To be noted: 20 μM FUT8, absence or presence of GDP (1 mM), 283 K. On the procedure: All experiments were performed at a temperature of 283 K using a Bruker AVANCE-III 800 MHz spectrometer with a 5 mm TXI triple resonance probe with z axis pulse field gradients (5 mm PATXI 1H-13C/15N/D Z-GRD). The ligands, M3N2, the M3N2-peptide, the G0-peptide, and the naked peptide, had their labile protons exchanged with deuterium by dissolving in D2O, freeze-drying for three times, and finally dissolving at 5 mM in D2O. M3N2-peptide, G0-peptide, and naked peptide ^1H-NMR and ^13C-NMR signals were assigned using ^1H-^13C HSQC (hsqcedetgp), ^1H-^13C HSQC-TOCSY (hsqcgpmlph), TOCSY (mlevph), COSY (cosygmpfqf), and HMBC (hmbcgplpndqf). 2D-NOESY experiments were carried out for M3N2 and the M3N2-peptide using the Bruker pulse program noesygpph with mixing times (d8) of 100, 150, 200, 250, 300, 400, 600, 800, 1000, and 1500 ms. The relaxation time was set to 1 s. Fourier transform was applied to both dimensions and the corresponding horizontal traces were extracted for H1B (4.47 ppm) and H5A (3.42 ppm) in the case of the M3N2-peptide. […] Average H1A-H5A and H1B-H5B distances were calculated from the 1 μs MD simulation and used for the calculation according to the equation in Figure S9c.
STD NMR spectra were measured for the corresponding N-glycans in the presence of 20 μM FUT8 both with and without GDP (1 mM) using the Bruker pulse program stddiff.3. […]

Test [3] deals with T1, human FUT8. Nature of the test: FUT8 enzyme kinetics, GDP-Glo luminescence assay. The format is biochemical. Here is the method:
as §1
Enzyme kinetics for FUT8 were determined using GDP-Glo luminescence assays (Promega). Reactions contained 100 nM FUT8 in 25 mM Tris (pH 7.5), 150 mM NaCl, and 200 μM GDP-fucose in the presence of the ligands. The concentrations of G0, the G0-peptide, the M3N2-peptide, M3N2, and M5N2-Asn ranged from 5 μM to 1 mM. To determine the kinetic parameters for GDP-fucose, we used 100 nM FUT8 in 25 mM Tris (pH 7.5), 150 mM NaCl, and variable concentrations of GDP-fucose (from 5 to 500 μM) in the presence of 500 μM of G0. Reactions were incubated for 30 min at 37 °C and stopped using 5 μL of GDP-detection reagent at a 1:1 ratio in white and opaque 384-well plates. Then, the plates were incubated in the dark for 1 h at room temperature. Subsequently, the luminance values were obtained by using a Synergy HT plate reader (Biotek).
To estimate the amount of GDP produced in the glycosyltransferase reaction, we created a GDP standard curve. The values were corrected for enzyme hydrolysis in the absence of the substrate acceptor and fitted to a nonlinear Michaelis–Menten equation in GraphPad Prism 6 software from which the Km, kcat, and Vmax along with their standard deviations were obtained. All the experiments were performed in duplicate.

The target of test [4] is T1, human FUT8. Nature of the test: FUT8 substrate specificity by MALDI-TOF MS. The format is biochemical. To be noted: 18 μM FUT8, 18 h at RT (long incubation). Here is the method:
Solutions of the different N-glycan structures (1 nmol) were incubated with a FUT8 enzyme (18 μM) and GDP-fucose (2 nmol) in 25 mM Tris and 150 mM NaCl (pH 7.5) (total volume of 10 μL) for 18 h at RT. The reaction mixture was analyzed by MALDI-TOF mass spectrometry employing a solution of 2,5-dihydroxybenzoic acid (DHB, 5 mg/mL in CH3CN:0.1% TFA, 30:70, containing 0.05% NaCl) as a matrix. The MALDI-TOF spectra were recorded on an Ultraflextreme III time-of-flight mass spectrometer equipped with a pulsed Nd:YAG laser (355 nm) and controlled by FlexControl 3.3 software (Bruker Daltonics, Bremen, Germany). The m/z range was selected according to the mass of the sample and the acquired spectra were processed with FlexAnalysis 3.3 software (Bruker Daltonics, Bremen, Germany).

The target of test [5] is human FUT8 (α-1,6-fucosyltransferase) (human) (UniProt Q9BYC5). Nature of the test: ITC; Auto-iTC200, 25 °C; FUT8 70 μM, ligand 400 μM to 1 mM; 25 mM Tris pH 7.5, 150 mM NaCl, 1 mM GDP (excess GDP); one-site model; duplicate. Background: ITC needs no label: the signal is the heat of the interaction.
For test [6], the system named is CHO^KO:mgat1. Nature of the test: Site-specific N-glycan analysis of recombinant glycoproteins produced in CHO^KO:mgat1. The format is cell-based. To be noted: for Man5-GlcNAc2-Fuc/total / Man5-GlcNAc2/total: total = sum of top five glycopeptide intensities by LC–MS.
Where [7] appears, read: excess GDP (1 mM), 25 °C, pH 7.5.
The mark [8] stands for this setting: 100 nM FUT8, 37 °C, 30 min, acceptors with 200 μM GDP-fucose, GDP-Fuc with saturating G0 (500 μM).
Where [9] appears, read: GDP titrated into FUT8, 25 °C, pH 7.5.

A word on the Kd: it is the equilibrium constant for the complex coming apart. The low end stands for higher affinity, the high end for lower affinity. As to `CC(=O)N[C@@H]1[C@@H](O)[C@H](O[C@@H]2O[C@H](CO)[C@@H](O[C@@H]3O[C@H](CO[C@H]4O[C@H](CO)[C@@H](O)[C@H](O)[C@@H]4O[C@@H]4O[C@H](CO)[C@@H](O)[C@H](O)[C@H]4NC(C)=O)[C@@H](O)[C@H](O[C@H]4O[C@H](CO)[C@@H](O)[C@H](O)[C@@H]4O[C@@H]4O[C@H](CO)[C@@H](O)[C@H](O)[C@H]4NC(C)=O)[C@@H]3O)[C@H](O)[C@H]2NC(C)=O)[C@@H](CO)O[C@H]1NC(=O)C[C@H](NC(=O)[C@H](C)NC(=O)[C@@H](NC(=O)[C@@H](N)CCCCN)C(C)C)C(=O)N[C@@H](CCCCN)C(=O)N[C@H](C(=O)O)[C@@H](C)O` [G0-peptide], the Kd in test [1] (setting [7]) amounted to 10 ± 4 µM.
In the case of `CC(=O)N[C@H]1[C@H](O[C@H]2[C@H](O)[C@@H](NC(C)=O)C(O)O[C@@H]2CO)O[C@H](CO)[C@@H](O[C@@H]2O[C@H](CO[C@H]3O[C@H](CO)[C@@H](O)[C@H](O)[C@@H]3O)[C@@H](O)[C@H](O[C@H]3O[C@H](CO)[C@@H](O)[C@H](O)[C@@H]3O)[C@@H]2O)[C@@H]1O` (some centres unmarked) [M3N2, Man3GlcNAc2 N-glycan oligosaccharide], the “STD NMR interaction with FUT8” value in test [2] is “no STD NMR signals were observed”. The “FUT8 activity against acceptor substrate” value in test [3] (acceptor 5 μM to 1 mM) is “inactive”. In addition, the “Core fucosylation by FUT8, qualitative (MALDI-TOF MS)” value in test [4] was “very poorly glycosylated”. Also, the “Binding to FUT8 by ITC” value in test [1] (excess GDP (1 mM)) is “could not determine a Kd”.
The stoichiometry N is a count of units in the complex or per binding partner. In test [5], “M3N2-peptide (Man3GlcNAc2 N-glycopeptide, KVANKT)” returned a dH of 32.2 kJ/mol and a stoichiometry N of 1.6.
One may read the Km as the substrate concentration at which the rate is half of its maximum. For `C[C@@H]1O[C@H](OP(=O)(O)OP(=O)(O)OC[C@H]2O[C@@H](n3cnc4c(=O)[nH]c(N)nc43)[C@H](O)[C@@H]2O)[C@@H](O)[C@H](O)[C@@H]1O` [GDP-Fuc, GDP-β-L-fucose], in test [3] (setting [8]), the Km stood at 14.6 ± 3.4 µM, the Vmax is reported as 244.3 ± 13.1 nmol·min^–1·mg^–1 and the kcat is given as 14.17 ± 0.76 min^–1. The “Catalytic efficiency of the transfer reaction relative to G0” value in test [3] (GDP-Fuc more efficient than G0) was roughly 10 fold.
For “EPO: recombinant erythropoietin expressed in CHO cells”, the Man5-GlcNAc2-Fuc/total in test [6] (EPO N-glycosite N51) stood at 0.48; in test [6] (EPO N-glycosite N65), 0.90; in test [6] (EPO N-glycosite N110), 0.67. The Man5-GlcNAc2/total turned out to be 0.52 in test [6] (EPO N-glycosite N51), 0.10 in test [6] (EPO N-glycosite N65) and 0.33 in test [6] (EPO N-glycosite N110). Further, the “Core fucosylation of high-mannose N-glycan in KO mgat1” value in test [6] (N65 glycosite) is reported as “almost exclusively core-fucosylated”. Besides, the “Core fucosylation of high-mannose N-glycans in KO mgat1” value in test [6] (all glycosites) is recorded as “acquired core Fuc to some degree”.
Turning to `Nc1nc2c(ncn2[C@@H]2O[C@H](COP(=O)(O)OP(=O)(O)O)[C@@H](O)[C@H]2O)c(=O)[nH]1` [GDP, reference compound], in test [1] (setting [9]), the equilibrium dissociation constant (Kd) was 6.11 µM and 6.1 µM; the “n (stoichiometry of binding)” value is given as 0.60; the ΔG result was “–7.09 ± 1.65 kcal/mol”; the ΔH result was “–5.02 ± 0.4 kcal/mol”. The “–TΔS” value in test [1] (setting [9]) was “–2.07 ± 0.48 kcal/mol”.
As for `CC(=O)N[C@@H]1[C@@H](O)[C@H](O[C@@H]2O[C@H](CO)[C@@H](O[C@@H]3O[C@H](CO[C@H]4O[C@H](CO[C@H]5O[C@H](CO)[C@@H](O)[C@H](O)[C@@H]5O)[C@@H](O)[C@H](O[C@H]5O[C@H](CO)[C@@H](O)[C@H](O)[C@@H]5O)[C@@H]4O)[C@@H](O)[C@H](O[C@H]4O[C@H](CO)[C@@H](O)[C@H](O)[C@@H]4O)[C@@H]3O)[C@H](O)[C@H]2NC(C)=O)[C@@H](CO)O[C@H]1NC(=O)C[C@H](N)C(=O)O` [M5N2-Asn, Man5GlcNAc2-Asn], the “Initial velocity, fold worse than that of G0 and the G0-peptide” value in test [3] (1 mM acceptor substrate) is recorded as roughly 14 fold. In test [1] (excess GDP (1 mM)), the “Binding to FUT8 by ITC” value is on record as “could not observe a binding titration profile”.
In test [5], “G0-peptide (KVANKT carrying the biantennary complex N-glycan G0 on Asn4)” gave a dH of -13.4 kJ/mol and a stoichiometry N of 0.84.
`CC(=O)N[C@@H]1[C@@H](O)[C@H](O[C@@H]2O[C@H](CO)[C@@H](O[C@@H]3O[C@H](CO[C@H]4O[C@H](CO)[C@@H](O)[C@H](O)[C@@H]4O)[C@@H](O)[C@H](O[C@H]4O[C@H](CO)[C@@H](O)[C@H](O)[C@@H]4O)[C@@H]3O)[C@H](O)[C@H]2NC(C)=O)[C@@H](CO)O[C@H]1NC(=O)C[C@H](NC(=O)[C@H](C)NC(=O)[C@@H](NC(=O)[C@@H](N)CCCCN)C(C)C)C(=O)N[C@@H](CCCCN)C(=O)N[C@H](C(=O)O)[C@@H](C)O` [M3N2-peptide, Man3GlcNAc2 N-glycopeptide] gave a Kd in test [1] (setting [7]) of 406 ± 159 µM.
